This note sets out measurements from patent US20220256890A1, “ANIMAL FEED SUPPLEMENT AND ANIMAL FEED COMPOSITION” (MOOTRAL INNOVATIONS LIMITED, priority 2019, published 2022).

The test system of the test is rumen inoculum. The experiment in a line: in vitro incubation of test materials with rumen inoculum, methane measured by micro-gas chromatograph. The settings on record: Example 2, no garlic, 24 hour incubation. Type of test: cell-based, dairy cows. As to the method: Rumen inoculum was obtained before the morning feeding from 3 rumen fistulated dairy cows on a diet composed of 50% maize silage and 50% wilted grass silage (on dry matter basis) supplemented with some straw and urea. Additionally, soybean meal and balanced compound feed were administered to fulfil the animals' requirements for milk production. Test materials were incubated in 125-mL flasks containing 25 mL of CO2-saturated bicarbonate/phosphate buffer (containing 3.58 g Na2HPO4.12H2O, 1.55 g KH2PO4, 0.124 g MgCl2.6H2O, 8.74 g NaHCO3 and 1.71 g NH4HCO3 per liter of distilled water) and rumen inoculum, in triplicate per test material (3 biological replicates). A mixture of maize silage (crude protein 65.6 g kg^−1, crude fat 27.9 g kg^−1, crude fibre 145 g kg^−1 and starch 410 g kg DM^−1), grass silage (crude protein 153 g kg^−1, crude fat 28.8 g kg^−1, crude fibre 277 g kg^−1 and sugar 78.5 g kg^−1) and dairy concentrate (crude protein 183 g kg^−1, crude fibre 29 g kg^−1 an sugar 89 g kg^−1) was used as the substrate (30/30/40, DM weight basis, 250 mg flask^−1). The test materials (garlic powder, eugenol, geranyl acetate and coriander oil) were added shortly before the incubation directly into the fluid. All flasks were incubated in a shaking incubator at 39° C. (Edmund Buhler Gmbh, Hechingen, Germany). At the end of the 24 hour incubation, flasks were removed from the incubator and placed in ice water to stop the fermentation. pH, gas pressure and gas composition were measured, and samples were collected for VFA analysis. Different amounts of garlic powder were used providing allicin doses of 0.1 mg, 0.2 mg, 0.4 mg, and 0.8 mg per flask (i.e. 4 mg/l, 8 mg/l, 16 mg/l, and 32 mg/l). A fixed concentration of 500 mg/l (i.e. 12.5 mg/flask) for the other test materials was used. Water was used as a negative control. The amount of methane gas was measured using a micro-gas chromatograph equipped with two gas chromatographic modules and a thermal conductivity detector (3000 micro-GC, Agilent, USA). Ethane (C2H6; 1 mL/flask) was used as internal standard and argon as a carrier gas for both columns. The data obtained with the test materials was normalized to a non-treated control group, i.e. samples receiving the substrate only (negative control). I.e. 100% refers to the value of the negative control. Values below 100% indicate reduction of methane as a result of the additive. Values above 100% indicate an increase in methane production. The synergism between garlic and a component of essential oil was also studied. Synergy was calculated by adding the percentage reduction of methane by garlic alone and eugenol or geranyl acetate alone and then subtracting the percentage reduction of the combination and the component of essential oil. The resulting values were inversed. […] An experiment was conducted to test the dose-dependent effects of the essential oils and the components of the essential oils. The same method and test materials of Example 1 was used in this experiment. Different amounts of garlic powder were used providing allicin doses of 0.1 mg, 0.2 mg, 0.4 mg, and 0.8 mg per flask (i.e. 4 mg/l, 8 mg/l, 16 mg/l, and 32 mg/l). The doses of eugenol, geranyl acetate, coriander oil and bornyl acetate were varied in this experiment whereby 0.25 mg/ml, 0.5 mg/ml, 0.75 mg/ml of test materials was used. Water was used as a negative control. The amount of methane produced for each reaction was measured using the same method as described in Example 1.

The mark [1] stands for this setting: essential oil or component alone 0.25 mg/mL.
Where [2] appears, read: essential oil or component alone 0.5 mg/mL.
The mark [3] stands for this setting: essential oil or component alone 0.75 mg/mL.

As to `CC(=O)OC1CC2CCC1(C)C2(C)C` (stereo not drawn) [Bornyl acetate], the production of methane runs as follows: under setting [1], 422 μmol/reaction; under setting [2], 353 μmol/reaction; under setting [3], 267 μmol/reaction.
In the same order, the values of `C=CCc1ccc(O)c(OC)c1` [Eugenol] are 388 μmol/reaction, 310 μmol/reaction and 234 μmol/reaction.
The corresponding values for `CC(=O)OC/C=C(\C)CCC=C(C)C` [Geranyl acetate] are 436 μmol/reaction, 327 μmol/reaction and 203 μmol/reaction.
